In patent US20150057346A1, “METHODS OF MAINTAINING INTRAMUSCULAR MYOGLOBIN LEVELS, MAINTAINING MAXIMAL AEROBIC CAPACITY, AND ENHANCING THE OXIDATIVE CAPACITY OF MUSCLE IN A SUBJECT” (ABBOTT LABORATORIES, priority 2013, published 2015):

Assays:
[1] = Body composition (lean mass by DXA) over 10 days of bed rest (clinical study); type: in vivo, human; conditions: over 10 day bed rest, healthy elderly subjects
From the text: The 24 healthy subjects initially involved in the study were randomized into two groups. Subjects in the treatment group received two β-hydroxy-β-methylbutyrate (HMB) sachets containing 1.5 grams of Ca-HMB (TSI, Salt Lake City, Utah), 4 grams of maltodextrin, and 200 milligrams of calcium with additional sweetener and flavoring agents. Subjects in the control group received two control sachets that were identical to the HMB sachets with the exclusion Ca-HMB. This study was a double-blinded study. Neither the investigators nor the subjects were informed of the identity of any of the study products during the clinical portion of the study. […]
After a diet stabilization of 5 days (ambulatory period), subjects remained in bed continuously for 10 days. […] Subjects were constantly monitored by nursing staff and received a daily physical examination by the study physician.
Body weight was measured at baseline and after bed rest to the nearest 0.1 kilogram on an Ohaus scale (Ohaus Corporation, model 15S, Florham Park, N.J.). Nude body weight was calculated as total body weight minus hospital robe weight. Body height was measured to the nearest 0.1 cm without shoes using a stadiometer. Body mass index (BMI) was calculated as weight/height^2 (kg/m^2). […]

Myoglobin = test: Serum myoglobin levels before and after 10 days of bed rest (clinical study, RBM Human DiscoveryMAP); type: in vivo
Protocol: Example 3 describes a clinical study that was conducted to evaluate the effects of 10 days of bed rest on healthy elderly subjects. The exemplary methods are based, at least in part, on inventors' discovery that serum myoglobin levels change by statistically significant amounts in 18 healthy elderly subjects undergoing 10 days of bed rest. The exemplary methods are also based, at least in part, on inventors' discovery that intervention with HMB altered the change in serum myoglobin levels.
The 24 healthy subjects initially involved in the study were randomized into two groups. Subjects in the treatment group received two β-hydroxy-β-methylbutyrate (HMB) sachets containing 1.5 grams of Ca-HMB (TSI, Salt Lake City, Utah), 4 grams of maltodextrin, and 200 milligrams of calcium with additional sweetener and flavoring agents. Subjects in the control group received two control sachets that were identical to the HMB sachets with the exclusion Ca-HMB. This study was a double-blinded study. Neither the investigators nor the subjects were informed of the identity of any of the study products during the clinical portion of the study. Subjects were instructed to consume a sachet twice daily by mixing a sachet into a non-caloric, non-caffeinated, non-carbonated, non-milk-based beverage of their choice. Treatment with HMB or Control was initiated 5 days prior to bed rest and was continued until the end of the 10 day bed rest period.
After a diet stabilization of 5 days (ambulatory period), subjects remained in bed continuously for 10 days. While confined to bed rest, subjects were allowed to use the bedside commode for urination or were taken in a wheelchair for toileting. Subjects were given the option of taking a sponge bath or showering in a wheelchair. Prophylactic measures were taken to detect and prevent deep vein thrombosis including a blood D-dimer test followed by an ultrasound examination if D-dimer test was positive, passive range of motion exercise during bed rest, the use of TED hose and SCD over the bed rest period. Subjects were offered medication to help mitigate reflux problems associated with being supine. Subjects were constantly monitored by nursing staff and received a daily physical examination by the study physician.
Fasted blood samples were collected from subjects on Day 1 of bed rest and at the end of bed rest for measurement of biomarkers, including myoglobin.
Rules Based Medicine (Myriad RBM, Inc., Austin, Tex.) data generated from the RBM Human DiscoveryMAP v1.0 consists of n=187 biomarkers measured in serum collected at two time points, pre-bed rest and post-bed rest from 18 elderly subjects. The distribution of each marker was evaluated. Each marker has a least detectable dose (LDD) value, defined as the mean+3 standard deviations (SD) of 20 blank samples. For any subject whose marker result was <LDD, the LDD value as provided by RBM was imputed. If the marker result was >LDD, the original result was used. Any marker in which >30% of all subject's results were imputed was excluded from further statistical analyses. Of the initial n=187 RBM markers, n=63 markers from the RBM dataset were excluded from further analyses, leaving n=124 markers for evaluation.
The Control group was examined to determine the biomarkers that changed over bed rest. Individual univariate dependent t-tests were performed on each of the 124 markers. There were a total of 8 participants who had matched data over bed rest within the Control group.
In order to assess the changes in the markers over bed rest that may be mediated by HMB intervention, individual univariate ANCOVA analyses were subsequently performed on each of the 13 (unadjusted) significant markers from the multiple dependent t-tests. Using a Bonferonni adjusted p-value of 0.0038 (0.05/13), 10 markers, including myoglobin, were significant.

[2] = 10 subjects treated with HMB, after 10 days of bed rest
[3] = serum, pre- to post-bed rest (10 days), n = 10

## CC(C)(O)CC(=O)O [HMB, β-hydroxy-β-methylbutyrate]
[1]; p=0.42 paired t-test
  average loss of total lean mass: -0.17 ± 0.19 kg
[1]; p=0.65 paired t-test
  average loss of leg lean mass: -0.08 ± 0.17 kg
Myoglobin; [2]
  average decrease in blood levels of myoglobin: 10.2 ng/mL
  decrease in blood levels of myoglobin (percent): 19%
Myoglobin; serum, healthy elderly subjects, n = 10, 1.5 g Ca-HMB sachet twice daily from 5 days prior to bed rest, Day 1 of bed rest
  Myoglobin Pre-bed rest Mean: 49.3 ng/mL
Myoglobin; serum, healthy elderly subjects, n = 10, 1.5 g Ca-HMB sachet twice daily, end of 10 day bed rest
  Myoglobin Post-bed rest Mean: 39.1 ng/mL
Myoglobin; [3]
  Myoglobin % Change: −19 ± 6%
  Myoglobin Change: -10.2 ± 6.4 ng/mL
